Assay results: patent publication US9382228B2 (priority 2013, dated 2016)
One block for each compound: values may come before it.

Experiments:
osteoclast precursors = assay: cells; type: cell-based; settings: read-out: Osteoclast assay
Experimental: Osteoclast Tartrate-Resistant Acid Phosphatase Assay
Diluted compound was transferred to a 384-well black clear bottom plate. Two-thousand five hundred osteoclast precursors (Lonza, Walkersville, Md.) were added per well in growth media containing Receptor Activator of Nuclear Factor Kappa-beta ligand (RANKL) and M-CSF (R&D Systems, Minneapolis, Minn.). […] Tartrate-resistant acid phosphatase activity in the supernatant samples was determined using an acid phosphatase assay kit (Sigma, St. Louis, Mo.). Absorbance was measured at 550 nm using a plate reader. Data was analyzed using Prism software (Graphpad, San Diego, Calif.) to calculate IC50 values.

M-NFS-60 cells = assay: cells; settings: 67 h, read-out: M-NFS-60 cell proliferation
Experimental: M-NFS-6 Cell Proliferation Assay
A serial dilution of test compound was dispensed into a 384-well black clear bottom plate (Corning, Corning, N.Y.). Two thousand five hundred cells were added per well in 50 μL complete growth medium. […] IC50 values were calculated from a series of percent inhibition values determined at a range of inhibitor concentrations using software routines as implemented in the GraphPad Prism software package.

[1] = target: T1, unphosphorylated c-FMS kinase (uFMS, Seq. ID no. 1) (Homo sapiens, UniProt P07333); assay: biochemical; settings: uFMS, enzymatic assay, ATP 500 μM
T1 sequence (P07333 538-972): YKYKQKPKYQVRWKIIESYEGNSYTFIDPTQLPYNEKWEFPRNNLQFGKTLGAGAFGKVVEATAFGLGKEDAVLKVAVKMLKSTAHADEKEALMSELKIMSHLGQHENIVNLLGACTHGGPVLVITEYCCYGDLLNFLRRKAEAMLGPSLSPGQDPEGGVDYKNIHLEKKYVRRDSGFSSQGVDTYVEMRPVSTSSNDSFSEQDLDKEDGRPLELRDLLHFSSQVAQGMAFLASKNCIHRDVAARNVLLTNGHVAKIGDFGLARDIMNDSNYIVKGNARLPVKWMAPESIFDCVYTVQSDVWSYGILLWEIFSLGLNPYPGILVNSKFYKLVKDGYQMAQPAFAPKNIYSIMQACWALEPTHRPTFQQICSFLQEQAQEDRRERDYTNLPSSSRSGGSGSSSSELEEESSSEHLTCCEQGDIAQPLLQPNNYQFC

[2] = target: unphosphorylated c-KIT kinase (uKIT, Seq. ID no. 2) (Homo sapiens, UniProt P10721); assay: biochemical; settings: uKIT, enzymatic assay, ATP 2000 μM
Experimental: uKit kinase (Seq. ID No. 2) Assay
In this assay, the oxidation of NADH (thus the decrease at A340 nm) was continuously monitored spectrophometrically. […] The inhibition reaction was started by mixing serial diluted test compound with the above reaction mixture. The absorption at 340 nm was monitored continuously for 4 hours at 30° C. on Synergy 2 plate reader (BioTech).

[3] = target: unphosphorylated PDGFRβ kinase (uPDGFRβ, Seq. ID No. 3) (Homo sapiens, UniProt P09619); assay: biochemical; settings: uPDGFRb, enzymatic assay, ATP 500 μM
Sequence of unphosphorylated PDGFRβ kinase (uPDGFRβ, Seq. ID No. 3) (P09619 557-1106): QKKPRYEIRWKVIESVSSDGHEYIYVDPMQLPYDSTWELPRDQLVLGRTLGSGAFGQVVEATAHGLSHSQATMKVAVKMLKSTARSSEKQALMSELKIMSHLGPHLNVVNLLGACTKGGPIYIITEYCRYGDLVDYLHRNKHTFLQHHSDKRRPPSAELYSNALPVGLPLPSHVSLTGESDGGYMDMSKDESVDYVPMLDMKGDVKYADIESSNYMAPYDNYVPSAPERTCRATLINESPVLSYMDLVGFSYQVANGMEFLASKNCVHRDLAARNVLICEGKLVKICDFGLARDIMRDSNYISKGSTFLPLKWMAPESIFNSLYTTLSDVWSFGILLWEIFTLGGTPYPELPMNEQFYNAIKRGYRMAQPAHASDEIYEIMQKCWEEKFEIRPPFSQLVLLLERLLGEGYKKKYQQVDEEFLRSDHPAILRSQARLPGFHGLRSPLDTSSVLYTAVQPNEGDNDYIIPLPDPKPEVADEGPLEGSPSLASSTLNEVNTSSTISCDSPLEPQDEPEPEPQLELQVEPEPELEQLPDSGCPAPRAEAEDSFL
Experimental: Unphosphorylated PDGFRβ (uPDGFRβ) Kinase (Seq. ID No. 3) Assay
In this assay, the oxidation of NADH (thus the decrease at A340 nm) was continuously monitored spectrophometrically. […] The inhibition reaction was started by mixing serial diluted test compound with the above reaction mixture. The absorption at 340 nm was monitored continuously for 4 h at 30° C. on a Polarstar Optima or Synergy 2 plate reader. The reaction rate was calculated using the 1.5 to 2.5 h time frame. Percent inhibition was obtained by comparison of reaction rate with that of a control (i.e. with no test compound). IC50 values were calculated from a series of percent inhibition values determined at a range of inhibitor concentrations using software routines as implemented in the GraphPad Prism software package.

Sequence of unphosphorylated c-KIT kinase (uKIT, Seq. ID no. 2) (P10721 with tags, fused parts or gaps): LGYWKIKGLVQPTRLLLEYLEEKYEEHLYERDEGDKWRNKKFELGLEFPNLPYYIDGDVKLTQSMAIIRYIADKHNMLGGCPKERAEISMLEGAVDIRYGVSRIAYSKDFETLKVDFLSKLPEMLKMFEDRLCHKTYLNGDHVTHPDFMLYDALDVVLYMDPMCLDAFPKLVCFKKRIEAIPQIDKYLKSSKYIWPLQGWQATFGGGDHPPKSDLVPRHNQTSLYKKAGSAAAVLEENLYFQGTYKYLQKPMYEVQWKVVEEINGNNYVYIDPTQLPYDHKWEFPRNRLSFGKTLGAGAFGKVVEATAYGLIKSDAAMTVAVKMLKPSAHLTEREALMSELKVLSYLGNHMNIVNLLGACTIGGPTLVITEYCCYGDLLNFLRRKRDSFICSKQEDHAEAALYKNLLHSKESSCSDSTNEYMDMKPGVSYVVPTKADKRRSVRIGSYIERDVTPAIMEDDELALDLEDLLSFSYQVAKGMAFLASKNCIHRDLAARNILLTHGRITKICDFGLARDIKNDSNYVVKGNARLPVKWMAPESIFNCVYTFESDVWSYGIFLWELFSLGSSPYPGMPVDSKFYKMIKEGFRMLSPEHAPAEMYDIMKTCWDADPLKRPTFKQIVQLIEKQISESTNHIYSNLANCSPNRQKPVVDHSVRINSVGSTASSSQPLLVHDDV

Compound: Cn1cc(-c2cc(Oc3ccc(NC(=O)NC(=O)C4CC(C)(C)C4)nc3)ncn2)cn1 [Example 5, 3,3-dimethyl-N-((5-((6-(1-methyl-1H-pyrazol-4-yl)pyrimidin-4-yl)oxy)pyridin-2-yl)carbamoyl)cyclobutanecarboxamide]
IC50 (osteoclast precursors): < 10 nM | IC50 (M-NFS-60 cells): < 10 nM | IC50 [1]: < 10 nM | IC50 [3]: 10 to 100 nM

Compound: Cn1cc(-c2cc(Oc3ccc(NC(=O)NC(=O)C4(C#N)CC4)nc3)ccn2)cn1 [Example 27, 1-cyano-N-((5-((2-(1-methyl-1H-pyrazol-4-yl)pyridin-4-yl)oxy)pyridin-2-yl)carbamoyl)cyclopropanecarboxamide]
IC50 (M-NFS-60 cells): > 1000 nM | IC50 [1]: > 1000 nM | IC50 [2]: > 1000 nM | IC50 [3]: > 1000 nM

Compound: Cn1cc(-c2cc(Oc3ccc(NC(=O)NC(=O)C(C)(C)C#N)nc3)ccn2)cn1 [Example 30, 2-cyano-2-methyl-N-((5-((2-(1-methyl-1H-pyrazol-4-yl)pyridin-4-yl)oxy)pyridin-2-yl)carbamoyl)propanamide]
IC50 (M-NFS-60 cells): > 1000 nM | IC50 [1]: 100 to 1000 nM | IC50 [2]: > 1000 nM | IC50 [3]: > 1000 nM

Compound: Cn1cc(-c2cc(Oc3ccc(NC(=O)NC(=O)CC4CC5CCC4C5)nc3)ccn2)cn1 (stereo not shown) [Example 62, 2-(bicyclo[2.2.1]heptan-2-yl)-N-((5-((2-(1-methyl-1H-pyrazol-4-yl)pyridin-4-yl)oxy)pyridin-2-yl)carbamoyl)acetamide]
IC50 (osteoclast precursors): < 10 nM | IC50 (M-NFS-60 cells): < 10 nM | IC50 [1]: < 10 nM | IC50 [2]: < 10 nM | IC50 [3]: < 10 nM

Compound: CCC(C)(C)C(=O)NC(=O)Nc1ccc(Oc2ccnc(-c3cnn(C)c3)c2)cn1 [Example 63, 2,2-dimethyl-N-((5-((2-(1-methyl-1H-pyrazol-4-yl)pyridin-4-yl)oxy)pyridin-2-yl)carbamoyl)butanamide]
IC50 (osteoclast precursors): < 10 nM | IC50 (M-NFS-60 cells): < 10 nM | IC50 [1]: < 10 nM | IC50 [2]: 100 to 1000 nM | IC50 [3]: 100 to 1000 nM

Compound: Cn1cc(-c2cc(Oc3ccc(NC(=O)NC(=O)C4CC5CCC4C5)nc3)ccn2)cn1 (stereo not shown) [Example 64, N-((5-((2-(1-methyl-1H-pyrazol-4-yl)pyridin-4-yl)oxy)pyridin-2-yl)carbamoyl)bicyclo[2.2.1]heptane-2-carboxamide]
IC50 (osteoclast precursors): 10 to 100 nM | IC50 (M-NFS-60 cells): < 10 nM | IC50 [1]: < 10 nM | IC50 [2]: < 10 nM | IC50 [3]: 10 to 100 nM

Compound: Cn1cc(-c2cc(Oc3ccc(NC(=O)NC(=O)C4CCCC4)nc3)ccn2)cn1 [Example 65, N-((5-((2-(1-methyl-1H-pyrazol-4-yl)pyridin-4-yl)oxy)pyridin-2-yl)carbamoyl)cyclopentanecarboxamide]
IC50 (osteoclast precursors): < 10 nM | IC50 (M-NFS-60 cells): < 10 nM | IC50 [1]: < 10 nM | IC50 [2]: < 10 nM | IC50 [3]: 100 to 1000 nM

Compound: Cn1cc(-c2cc(Oc3ccc(NC(=O)NC(=O)C4CCCCC4)nc3)ccn2)cn1 [Example 67, N-((5-((2-(1-methyl-1H-pyrazol-4-yl)pyridin-4-yl)oxy)pyridin-2-yl)carbamoyl)cyclohexanecarboxamide]
IC50 (osteoclast precursors): < 10 nM | IC50 (M-NFS-60 cells): < 10 nM | IC50 [1]: < 10 nM | IC50 [2]: < 10 nM | IC50 [3]: 10 to 100 nM

Compound: Cn1cc(-c2cc(Oc3ccc(NC(=O)NC(=O)C4CCOCC4)nc3)ccn2)cn1 [Example 68, N-((5-((2-(1-methyl-1H-pyrazol-4-yl)pyridin-4-yl)oxy)pyridin-2-yl)carbamoyl)tetrahydro-2H-pyran-4-carboxamide]
IC50 (osteoclast precursors): < 10 nM | IC50 (M-NFS-60 cells): 10 to 100 nM | IC50 [1]: < 10 nM | IC50 [2]: 100 to 1000 nM | IC50 [3]: 100 to 1000 nM

Compound: CCC(=O)NC(=O)Nc1ccc(Oc2ccnc(-n3cnc(C)c3)c2)cn1 [Example 128, N-((5-((2-(4-methyl-1H-imidazol-1-yl)pyridin-4-yl)oxy)pyridin-2-yl)carbamoyl)propionamide]
IC50 (osteoclast precursors): 100 to 1000 nM | IC50 (M-NFS-60 cells): > 1000 nM | IC50 [1]: 100 to 1000 nM | IC50 [2]: > 1000 nM

Further lines, with some results ahead:

IC50 (osteoclast precursors): 10 to 100 nM | IC50 [1]: 10 to 100 nM | IC50 [2]: > 1000 nM | IC50 [3]: > 1000 nM
Compound: Cc1cn(-c2cc(Oc3ccc(NC(=O)NC(=O)[C@@H]4C[C@H]5CC[C@@H]4O5)nc3C)ccn2)cn1 (relative stereo) [Example 137, exo-N-((6-methyl-5-((2-(4-methyl-1H-imidazol-1-yl)pyridin-4-yl)oxy)pyridin-2-yl)carbamoyl)-7-oxabicyclo[2.2.1]heptane-2-carboxamide]
IC50 (M-NFS-60 cells): 100 to 1000 nM

IC50 [1]: 10 to 100 nM | IC50 [3]: > 1000 nM
Compound: COCCCC(=O)NC(=O)Nc1ccc(Oc2ccnc(-c3cnn(C)c3)c2)c(C)n1 [Example 25, 4-methoxy-N-((6-methyl-5-((2-(1-methyl-1H-pyrazol-4-yl)pyridin-4-yl)oxy)pyridin-2-yl)carbamoyl)butanamide]
IC50 (M-NFS-60 cells): 100 to 1000 nM

IC50 [1]: 100 to 1000 nM | IC50 [2]: > 1000 nM | IC50 [3]: > 1000 nM
Compound: Cc1nc(NC(=O)NC(=O)C2(C#N)CC2)ccc1Oc1ccnc(-c2cnn(C)c2)c1 [Example 28, 1-cyano-N-((6-methyl-5-((2-(1-methyl-1H-pyrazol-4-yl)pyridin-4-yl)oxy)pyridin-2-yl)carbamoyl)cyclopropanecarboxamide]
IC50 (M-NFS-60 cells): > 1000 nM

IC50 [1]: 10 to 100 nM | IC50 [2]: > 1000 nM | IC50 [3]: > 1000 nM
Compound: Cc1nc(NC(=O)NC(=O)C(C)(C)C#N)ccc1Oc1ccnc(-c2cnn(C)c2)c1 [Example 29, 2-cyano-2-methyl-N-((6-methyl-5-((2-(1-methyl-1H-pyrazol-4-yl)pyridin-4-yl)oxy)pyridin-2-yl)carbamoyl)propanamide]
IC50 (M-NFS-60 cells): 100 to 1000 nM

IC50 (osteoclast precursors): 100 to 1000 nM | IC50 [1]: < 10 nM | IC50 [2]: 10 to 100 nM | IC50 [3]: 10 to 100 nM
Compound: Cc1nc(NC(=O)NC(=O)C23CC4CC(CC(C4)C2)C3)ccc1Oc1ccnc(-c2cnn(C)c2)c1 [Example 37, N-((6-methyl-5-((2-(1-methyl-1H-pyrazol-4-yl)pyridin-4-yl)oxy)pyridin-2-yl)carbamoyl)adamantane-1-carboxamide]
IC50 (M-NFS-60 cells): 10 to 100 nM

IC50 [1]: 100 to 1000 nM | IC50 [2]: > 1000 nM
Compound: Cc1nc(NC(=O)NC(=O)CN2CCN(C)CC2)ccc1Oc1ccnc(-c2cnn(C)c2)c1 [Example 50, N-((6-methyl-5-((2-(1-methyl-1H-pyrazol-4-yl)pyridin-4-yl)oxy)pyridin-2-yl)carbamoyl)-2-(4-methylpiperazin-1-yl)acetamide]
IC50 (M-NFS-60 cells): > 1000 nM

IC50 (osteoclast precursors): 10 to 100 nM | IC50 [1]: 10 to 100 nM | IC50 [2]: > 1000 nM
Compound: Cc1ncc(-c2cc(Oc3ccc(NC(=O)NC(=O)C4CCOC4)nc3)ccn2)s1 (stereo not shown) [Example 115, N-((5-((2-(2-methylthiazol-5-yl)pyridin-4-yl)oxy)pyridin-2-yl)carbamoyl)tetrahydrofuran-3-carboxamide]
IC50 (M-NFS-60 cells): 100 to 1000 nM

IC50 (osteoclast precursors): 10 to 100 nM | IC50 [1]: 10 to 100 nM | IC50 [2]: > 1000 nM
Compound: COC1(C(=O)NC(=O)Nc2ccc(Oc3ccnc(-c4cnc(C)s4)c3)c(C)n2)CC1 [Example 122, 1-methoxy-N-((6-methyl-5-((2-(2-methylthiazol-5-yl)pyridin-4-yl)oxy)pyridin-2-yl)carbamoyl)cyclopropanecarboxamide]
IC50 (M-NFS-60 cells): 100 to 1000 nM

IC50 (osteoclast precursors): 10 to 100 nM | IC50 [1]: 10 to 100 nM | IC50 [2]: > 1000 nM
Compound: Cc1ncc(-c2cc(Oc3ccc(NC(=O)NC(=O)C4CCOCC4)nc3C)ccn2)s1 [Example 129, N-((6-methyl-5-((2-(2-methylthiazol-5-yl)pyridin-4-yl)oxy)pyridin-2-yl)carbamoyl)tetrahydro-2H-pyran-4-carboxamide]
IC50 (M-NFS-60 cells): 100 to 1000 nM

IC50 (osteoclast precursors): 10 to 100 nM | IC50 [1]: < 10 nM | IC50 [2]: 10 to 100 nM
Compound: COC(C)(C)C(=O)NC(=O)Nc1ccc(Oc2ccnc(-c3ccc(C4CCN(C)CC4)cc3)c2)c(C)n1 [Example 133, 2-methoxy-2-methyl-N-((6-methyl-5-((2-(4-(1-methylpiperidin-4-yl)phenyl)pyridin-4-yl)oxy)pyridin-2-yl)carbamoyl)propanamide]
IC50 (M-NFS-60 cells): < 10 nM

IC50 (osteoclast precursors): 10 to 100 nM | IC50 [1]: 10 to 100 nM | IC50 [2]: 100 to 1000 nM
Compound: Cc1cn(-c2cc(Oc3ccc(NC(=O)NC(=O)C4CCOCC4)nc3C)ccn2)cn1 [Example 142, N-((6-methyl-5-((2-(4-methyl-1H-imidazol-1-yl)pyridin-4-yl)oxy)pyridin-2-yl)carbamoyl)tetrahydro-2H-pyran-4-carboxamide]
IC50 (M-NFS-60 cells): 100 to 1000 nM

IC50 (osteoclast precursors): 10 to 100 nM | IC50 [1]: 10 to 100 nM | IC50 [2]: 100 to 1000 nM
Compound: COC1(C(=O)NC(=O)Nc2ccc(Oc3ccnc(-n4cnc(C)c4)c3)cn2)CC1 [Example 143, 1-methoxy-N-((5-((2-(4-methyl-1H-imidazol-1-yl)pyridin-4-yl)oxy)pyridin-2-yl)carbamoyl)cyclopropanecarboxamide]
IC50 (M-NFS-60 cells): 100 to 1000 nM
